The test system of data set [1] is A549 cells (human lung carcinoma cell line). The data set can be described thus: A549 MTT cell proliferation assay (HER-signalling pathway inhibitors). In kind it is cell-based. Conditions: for IC50: Homo sapiens, A549 cells, 5 days (120 h) incubation, MTT readout at 550 nm, 3 μM to 0.15 nM; for activity (in words): reference compound in the A549 biological assay. How it is done: A549 cells (human lung carcinoma cell line) were cultivated in RPMI 1640, 2.5% FCS, 2 mM Glutamine, 100 u/ml Penicillin, 100 μg/ml Streptomycin. For the assay the cells were seeded in 384 well plates, 900 cells per well, in the same medium. The next day compounds (dissolved 10 mM in DMSO) were added in various concentrations ranging from 3 μM to 0.15 nM (10 concentrations, 1:3 diluted). After 5 days the MTT assay was done mainly according to the instructions of the manufacturer (Cell proliferation kit I, MTT, from Roche Molecular Biochemicals). In brief: MTT labeling reagent was added to a final concentration of 0.5 mg/ml, added and incubated for 4 hrs at 37 C, 5% CO2. During this incubation time purple formazan crystals are formed. After addition of the solubilization solution (20% SDS in 0.02 M HCl) the plates were incubated overnight at 37° C., 5% CO2. After careful mixing plates were measured in Victor 2 (scanning multiwell spectrophotometer, Wallac) at 550 nm.
A decrease in number of living cells results in a decrease in the total metabolic activity in the sample. The decrease directly correlates to the amount of purple color resulting from the solubilization of the purple formazan crystals.
A549: 900 cells in 60 μl per well of 384 well plate (Greiner)
Medium: RPMI 1640, 2.5% FCS, glutamine, pen/strep.
Induction: • Dilution of compound in DMSO: 3 μl 10 mM+27 μl DMSO, dilute 1:3 • Add 2 μl of compound dilution row to 95 ul of medium • Add 10 μl of compound dilution to 60 μl medium in test plate→0.3% DMSO per well • Incubate 120 h (5 days) at 37° C., 5% CO2
Analysis: • Add 7 μl MTT (5 mg 7 ml/well), incubate 4 h at 37° C. • Add 30 μl lysis buffer (20% SDS, 0.04 N HCl) per well • Incubate overnight at 37° C.
Measurement: • Victor 2, 550 nm • Determination of IC50 was done using XL-fit.

`Fc1cc(/C=C/c2nc(COc3ccc(CCCCn4ccnn4)cc3)co2)ccc1Cl` [Example 1, 1-[4-(4-{2-[2-(E)-(4-Chloro-3-fluoro-phenyl)-vinyl]-oxazol-4-ylmethoxy}-phenyl)-butyl]1H-[1,2,3]triazole]: the melting point lay within 146 to 149 °C. Also, in data set [1], half-maximal inhibition (IC50) was put at 460 nM and the “activity (in words)” value is listed as “do not have reasonable activity”. In data set [1], `Fc1cc(Cl)ccc1/C=C/c1nc(COc2ccc(CCCCn3ccnn3)cc2)co1` [Example 2, 1-[4-(4-{2-[2-(E)-(4-Chloro-2-fluoro-phenyl)-vinyl]-oxazol-4-ylmethoxy}-phenyl)-butyl]-1H-[1,2,3]triazole] gave an IC50 below 5 nM.

`Fc1cc(C(F)(F)F)ccc1/C=C/c1nc(COc2ccc(CCCCn3ccnn3)cc2)co1` [Example 3, 1-[4-(4-{2-[2-(E)-(2-Fluoro-4-trifluoromethyl-phenyl)-vinyl]-oxazol-4-ylmethoxy}-phenyl)-butyl]-1H-[1,2,3]triazole] had an IC50 in data set [1] of 2 nM. `FC(F)(F)c1cccc(/C=C/c2nc(COc3ccc(CCCCn4ccnn4)cc3)co2)c1` [Example 4, 1-[4(4-{2-[2-(E)-(3-Trifluoromethyl-phenyl)-vinyl]-oxazol-4-ylmethoxy}-phenyl)-butyl]-1H-[1,2,3]triazole]: in data set [1], half-maximal inhibition (IC50) required 3550 nM and the “activity (in words)” value is “inactive”. For `Clc1ccc(/C=C/c2nc(COc3ccc(CCCCn4ccnn4)cc3)co2)cc1Cl` [Example 5, 1-[4-(4-{2-[2-(E)-(3,4-Dichloro-phenyl)-vinyl]-oxazol-4-ylmethoxy}-phenyl)-butyl]-1H-[1,2,3]triazole] the same measures were 900 nM and “do not have reasonable activity”. `FC(F)(F)c1ccc(C=Cc2nc(COc3ccc(CCCCn4ccnn4)cc3)co2)cc1` [reference, 1-[4-(4-{2-[2-(4-trifluoromethyl-phenyl)-vinyl]-oxazol-4-ylmethoxy}-phenyl)-butyl]-1H-[1,2,3]triazole, reference compound]: in data set [1], the IC50 turned out to be 7 nM and the “activity (in words)” value is listed as “less activity than the compounds of the present invention”.

These data come from patent publication US7247649B2, “Oxazoles, their manufacture and use as pharmaceutical agents” (Hoffmann-La Roche Inc., priority 2003, dated 2007).
